Measurements taken from patent US4847253A, “Antiparkinson ergoline derivatives” (Farmitalia Carlo Erba, priority 1987, dated 1989).
Entries after “also recorded” stand apart in the source; their conditions may differ.

Tests used:
[1] = known side effects, background; cited from earlier work
6-OHDA lesioned rats = assay: Contralateral turning behavior in 6-OHDA lesioned rats; format: in vivo, Male (ICR) Wistar rats; settings: scored for six hours
Description: The profile of dopamine agonists of the compound of the formula I was preliminary discovered by an induction of contralateral turning in rats with unilateral 6-hydroxy dopamine-induced lesions of the dopaminergic nigrostriatal pathway (according to the principles of U. Ungerstedt et al., Brain Research 24 (1970); p. 485).
Male (ICR) Wistar rats (290-310 g) anaesthetized i.p. with 50 mg/kg pentobarbital sodium were placed in a Stoelting stereotaxis frame and unilaterally injected with 6-hydroxy-dopamine (6-OHDA) in substantia nigra, pars compacta (8 μg of free base in 4 μl of saline kept ice cold with 0.2% ascorbic acid at the rate of 1 μl/min.). The neurotoxin was injected via a 10 μl Hamilton syringe under the following coordinates: A, 3.7 mm anterior to interaural line; V. 2.2 mm dorsal to interaural line; L, 2.2 mm from midline, according to Paxinos and Watson (The rat brain in stereotaxic coordinates. Academic Press, Sydney, Australia, 1982).
The needle was left in place 5 minutes further before being slowly withdrawn.
Following recovery from anaesthesia, rats were housed in a cage and given access to food and water ad libitum. After a 3 week recovery, rats were injected with apomorphine (0.5 mg/kg s.c.) and immediately put in automated rotometer bowls with a printing unit for 3 hours.
Only rats showing contralateral turning behavior totalling at least 250 complete turns within the control time, were used for the test with the compounds.
The test compounds were injected subcutaneously and rotational behavior scored each time for six hours.
All tested compounds were administered in a fixed volume (2 ml/kg body weight).

[2] = test system: apomorphine-induced climbing; assay: Antagonism to apomorphine-induced climbing in normal mice; format: in vivo; settings: for ED50: Mus musculus, po
Description: The anti-dopaminergic activity in normal mice of the ergoline derivatives according to the invention was assessed by the antagonism to apomorphine-induced climbing (Protais, P. et al., Psychopharmacology, 50, 1, 1976).

non-MPTP treated monkeys = assay: Behavior in non-MPTP treated monkeys; format: in vivo; settings: s.c.
MPTP treated monkeys = assay: MPTP-induced parkinsonism in monkey model; format: in vivo, Marmosets and cynomolgus
Source text: In nonhuman primates MPTP (1-methyl-4-phenyl-1,2,3,6-tetrahydropyridine) selectively destroys dopaminergic neurons in the substantia nigra pars compacta as has been shown in different primate species (1) (2) including the common marmoset and cynomolgus.
Repeated administration of MPTP produces varying degrees of akinesia or bradykinesia accompanied by rigidity of limbs, loss of vocalization and postural tremor.
Marmosets and cynomolgus were employed in these experiments. Each animal was administered a variable dosage regime showing them to have an individual susceptibility to MPTP according to Jenner et al. (3).
For the marmoset the cumulative dose was between 11-29 mg/kg i.p. over time courses of 4-10 days for three marmosets and 10-12 mg/kg i.p. for two cynomolgus in 4 days. All the monkeys were severely affected, completely akinetic and rigid with loss of vocalization, and blink reflex, with some postural tremor and were rendered unable to eat by themselves. After two or three days of wash-out to avoid the acute effect of MPTP administration, compound FCE 23884 was injected subcutaneously once a day starting from the dose 0.1 mg/kg up to 2 mg/kg.
Saline was administered in alternate fashion every three treatements to avoid the normal described improvement after the suspension of MPTP administration.

Reserpine-Treated Mice = assay: Locomotor activity in reserpine-treated mice; format: in vivo, Male mice, Crl:CD-1 (ICR) BR strain; settings: for No. of counts in 85 min.: reserpine 5 mg/kg i.p. pretreated; for locomotor activity in akinetic reserpinized mice: result in words, FCE 23884 at 1 mg/kg s.c.
Description: Male mice, (22-25 g) of the Crl:CD^R -1 (ICR) BR strain, were used. Injection volume for drugs was 0.5 ml/100 g body weight. Locomotor activity in mice was examined from 5 up to 90 min. by use of two "Columbus activity Meters" placing 5 animals per cage after each treatment. Comparison was made with reserpine treated animals (5 mg/kg i.p.) receiving saline (controls).
Groups of five mice were used each time. Eighteen hours reserpine pretreated mice were subcataneously injected with the test compound or apomorphine or saline.
Five minutes later, the animals were tested for locomotor activity according D. Hinzen et al., European Journal of Pharmacology 131 (1986) 75-86.

## CC(C)C[C@H]1C(=O)N2CCC[C@H]2[C@]2(O)O[C@](NC(=O)[C@@H]3C=C4c5cccc6[nH]c(Br)c(c56)C[C@H]4N(C)C3)(C(C)C)C(=O)N12 [Bromocriptine, reference compound]
[1]
  adverse effects: emesis, hypotension, cardiac arrhythmia, digital vasospasm in cold weather, conjunctival irritation, diplopia, nasal stuffiness, constipation and syndrome of bilateral red, tender edema of the lower limbs and neuroendocrine alterations
6-OHDA lesioned rats; 1.0 mg/kg s.c.
  No. of contralateral turns (X) in turning rats: 1922.3
  Turning rats/Treated rats: 6/9
[2]; p.o.
  Apomorphine antagonism (ED50): Inactive at 10 mg/kg

## CN1C(=O)CN(C[C@@H]2C[C@@H]3c4cccc5[nH]cc(c45)C[C@H]3N(C)C2)CC1=O [FCE 23710, 6-Methyl-8β-(3,5-dioxo-4-methyl-piperazin-1-yl-methyl)-ergoline]
6-OHDA lesioned rats; 1.0 mg/kg s.c.
  No. of contralateral turns (X) in turning rats: 1829.2
  Turning rats/Treated rats: 4/4
[2]
  ED50: 2.2 mg/kg

## CN1C[C@H](CN2CC(=O)NC(=O)C2)C=C2c3cccc4[nH]cc(c34)C[C@H]21 [FCE 23884, 6-Methyl-9,10-didehydro-8β-(3,5-dioxo-piperazin-1-yl-methyl)-ergoline]
non-MPTP treated monkeys
  behavioral effect in non-MPTP treated monkeys: sedative effect in a dose-dependent fashion; also recorded: antidopaminergic in non MPTP-treated monkeys
6-OHDA lesioned rats; 0.1 mg/kg s.c.
  No. of contralateral turns (X) in turning rats: 1317.5
  Turning rats/Treated rats: 9/10
6-OHDA lesioned rats; 0.5 mg/kg s.c.
  No. of contralateral turns (X) in turning rats: 2591.7
  Turning rats/Treated rats: 10/10
6-OHDA lesioned rats; 1.0 mg/kg s.c.
  No. of contralateral turns (X) in turning rats: 2146
  Turning rats/Treated rats: 5/5
[2]
  ED50: 0.5 mg/kg
MPTP treated monkeys; highest dose, 2 mg/kg s.c.
  reversal of akinesia, time of onset: 5 min
MPTP treated monkeys; lowest dose, 0.1 mg/kg s.c.
  reversal of akinesia, time of onset: 30 min
MPTP treated monkeys; s.c.
  effect in lesioned / MPTP treated monkeys: dopaminergic effect in lesioned animals; also recorded: dopaminergic agent in the MPTP treated monkeys
MPTP treated monkeys; s.c. once a day, 0.1 mg/kg up to 2 mg/kg
  Reversal of akinesia: Reversal of akinesia in a dose-dependent fashion was observed
Reserpine-Treated Mice; 1.0 mg/kg s.c.
  No. of counts in 85 min.: 625
Reserpine-Treated Mice
  locomotor activity in akinetic reserpinized mice: elicits locomotor activity as does apomorphine

## CN1C[C@H](CN2CC(=O)NC(=O)C2)C[C@@H]2c3cccc4c3c(cn4C)C[C@H]21 [FCE 23952, 1,6-Dimethyl-8β-(3,5-dioxo-piperazin-1-yl-methyl)-ergoline]
6-OHDA lesioned rats; 1.0 mg/kg s.c.
  No. of contralateral turns (X) in turning rats: 710.5
  Turning rats/Treated rats: 4/4
[2]
  ED50: 0.9 mg/kg

## CN1CCc2cccc3c2[C@H]1Cc1ccc(O)c(O)c1-3 [apomorphine, reference compound]
Reserpine-Treated Mice; 0.05 mg/kg s.c.
  No. of counts in 85 min.: 413
Reserpine-Treated Mice
  locomotor activity in akinetic reserpinized mice: elicits locomotor activity
